Measurements as given in ChEMBL document CHEMBL2046360, “Hydrophobic Interactions Improve Selectivity to ERα for Ben-zothiophene SERMs” (ACS Med Chem Lett, 2012).
Calls of active or inactive are those of the source. No cut-off for these calls is given here.

Assays:
[1] = biological target: T1, Estrogen receptor (Homo sapiens, UniProt P03372); assay: Displacement of [3H]estradiol from ERalpha after 4 hrs by scintillation counting
T1 sequence (P03372 whole entry): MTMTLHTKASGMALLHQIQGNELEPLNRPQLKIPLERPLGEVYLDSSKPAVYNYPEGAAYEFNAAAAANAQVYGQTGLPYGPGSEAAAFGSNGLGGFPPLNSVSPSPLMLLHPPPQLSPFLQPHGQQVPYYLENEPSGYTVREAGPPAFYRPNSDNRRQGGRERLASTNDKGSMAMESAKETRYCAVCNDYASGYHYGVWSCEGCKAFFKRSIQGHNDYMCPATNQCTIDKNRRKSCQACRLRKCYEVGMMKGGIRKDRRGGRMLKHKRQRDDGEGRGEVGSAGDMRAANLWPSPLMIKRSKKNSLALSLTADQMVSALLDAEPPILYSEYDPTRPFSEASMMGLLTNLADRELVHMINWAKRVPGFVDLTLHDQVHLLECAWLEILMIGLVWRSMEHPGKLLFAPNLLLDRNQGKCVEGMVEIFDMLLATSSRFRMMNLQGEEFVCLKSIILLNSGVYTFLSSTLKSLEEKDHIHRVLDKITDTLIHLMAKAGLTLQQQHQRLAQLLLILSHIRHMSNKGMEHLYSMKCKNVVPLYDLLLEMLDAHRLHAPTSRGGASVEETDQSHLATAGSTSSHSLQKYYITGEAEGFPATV

[2] = biological target: Estrogen receptor beta (Homo sapiens, UniProt Q92731); assay: Displacement of [3H]estradiol from ERbeta after 4 hrs by scintillation counting
[3] = Selectivity ratio of Ki for ERbeta to Ki for ERalpha
[4] = test system: MCF7; assay: Antiproliferative activity against human MCF7 cells after 48 hrs by [3H]-thymidine incorporation assay; assay type: functional, cell-based
[5] = test system: Rattus norvegicus; assay: AUC (0 to 24 hrs) in rat at 10 mg/kg, po; assay type: ADME, organism-based, Plasma; parameters: time < 24 hr, dose 10 mg/kg, route oral; conditions: in vivo
[6] = Cmax in rat at 10 mg/kg, po; assay type: ADME, organism-based; parameters: dose 10 mg/kg, route oral; conditions: in vivo
[7] = test system: Rattus norvegicus; assay: Antiestrogenic activity in young Sprague-Dawley rat assessed as inhibition of estrogen-induced uterine hypertrophy at 0.01 to 1 mg/kg, po for 3 days; assay type: functional, organism-based
[8] = test system: Rattus norvegicus; assay: […] Sprague-Dawley rat assessed as reduction of bone loss by measuring volumetric bone mineral density administered qd after 4 days post ovariectomy measured after 5 weeks; assay type: functional, organism-based
[9] = biological target: T1, Estrogen receptor; assay: Binding affinity to ERalpha ligand binding domain

Estrogen receptor beta, sequence (Q92731 whole entry): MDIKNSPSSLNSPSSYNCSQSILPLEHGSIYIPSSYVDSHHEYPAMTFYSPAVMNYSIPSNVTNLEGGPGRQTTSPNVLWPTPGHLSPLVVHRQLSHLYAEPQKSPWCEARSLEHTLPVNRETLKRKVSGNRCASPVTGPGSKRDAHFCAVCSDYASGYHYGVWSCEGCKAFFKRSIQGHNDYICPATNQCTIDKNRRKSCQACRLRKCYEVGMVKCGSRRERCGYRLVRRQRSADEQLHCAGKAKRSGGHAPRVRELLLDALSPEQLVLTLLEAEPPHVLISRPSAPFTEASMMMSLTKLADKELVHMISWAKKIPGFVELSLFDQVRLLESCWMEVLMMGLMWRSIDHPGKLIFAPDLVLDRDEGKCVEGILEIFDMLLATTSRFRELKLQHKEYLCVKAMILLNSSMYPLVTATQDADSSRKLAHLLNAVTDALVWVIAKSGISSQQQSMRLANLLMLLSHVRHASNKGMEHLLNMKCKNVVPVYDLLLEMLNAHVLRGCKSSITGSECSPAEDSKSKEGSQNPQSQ

- Ki [1]: 0.25 nM
- Ki [2]: 35 nM
- Ratio Ki [3]: 140
- IC50 [4]: 33 nM
- AUC [5]: 2337 ng·h/mL
- Cmax [6]: 210 ng/mL
- Ki [9]: 0.25 nM
Structure (SMILES): CCCCc1ccc(-c2sc3cc(O)ccc3c2C(=O)c2ccc(OCCN3CCCCC3)cc2)cc1
- inhibition [7]: Active
- Activity [8]: Dose-dependent effect
